{"source": "patent US20250109127A1", "about": "“METHODS OF USE OF PHENOXYPROPYLAMINE COMPOUNDS TO TREAT DEPRESSION” (Minerva Neurosciences, Inc., priority 2013, published 2025)", "test_system": "dopamine release in the rat prefrontal cortex", "experiment": "Microdialysis: dopamine release in prefrontal cortex after I.P. administration", "type": "in vivo", "settings": "for DOPAMINE (% of respective basal), individual animal: 0.1 mg/kg I.P., c2-c9 = R#13,14,20,19,25,26,31,32; for DOPAMINE (% of respective basal), individual animal / Dopamine release, individual animals: hydrochloride; for Dopamine release, MEAN / Dopamine release, individual animals: 0.3 mg/kg I.P.; for Dopamine release, MEAN: n = 8; for Dopamine release, individual animals: one column per animal R#11,12,18,23,29,30,17,24", "experimental": "The aim of the study was to evaluate, using microdialysis, the effects of an intraperitoneal (I.P.) administration in rats of three different doses of SON-117 on dopamine and its metabolites, serotonin and its metabolite (5-HIAA), and norepinephrine levels in prefrontal cortex.\nThirty-two adult male Wistar rats were used for the whole study (4 groups of eight animals planned for the study, Table 1).\nSurgery was performed on rats weighing about 300 g at the beginning of the experiments. Rats were anaesthetized with Ketamine (50 mg/kg) & Xylazine (15 mg/kg) by intramuscular administration. The animals were placed in a stereotaxic apparatus in the flat-skull position at a constant setting of −3.3 mm between ear bars and the incisor bar. The animals were treated with a local anesthesic (xylocaine 1%, Astra Zeneca) and an analgesic (Temgesic, from Schering Plough, 0.05 mg/kg, s.c.). A rostrocaudal midline incision was made with a lancet to expose the dorsal skull surface. The “stereotaxic zero” was defined by the Bregma in accordance with Paxinos and Watson's atlas (1986). A hole was drilled in the skull with a drill and the meninges were pierced with a sterile needle to implant a CMA12 guide cannula which later received the dialysis probe.\nCoordinates used for implanting guide cannula in prefrontal cortex from Bregma were anteroposterior 3.7 mm, mediolateral 0.8 mm, and dorsoventral −2 mm (top of the probe was at −5 mm). The guide cannula was fixed to the skull with two stainless steel screws (1.88 mm outside diameter) anchored. An application of dental cement was added. A plastic collar allowed each animal to be tethered to a Swivel assembly of the CMA 120 awake animal system. Following surgery, rats were kept in individual cages and allowed to recover for a minimum of 3-5 days before the experimentation. The rats were handled and put in plastic bowl for 10 min at least every day to habituate the animals to their new environment for the dialysis. An I.P. administration with saline was also performed every day.\nDialysis probes (CMA12/3 mm, membrane, 20 kD cut-off, Carnegie Medicine, Stockholm, Sweden), were carefully washed before inserting into the guide cannula. The wash was performed with the artificial cerebrospinal fluid (aCSF) medium (NaCl 147 mM, KCl 2.7 mM, CaCl2 1.2 mM, MgCl2 0.85 mM) at room temperature. The dialysis system was then equilibrated at 20° C. at a perfusion rate of 1 μl/min with a Carnegie pump (CMA100). All catheters (FEP tubing, internal volume of 1.2 μl/10 cm, and tubing adaptors) used for microdialysis were treated in the same conditions.\nThe probes duly prepared were inserted into the guide cannula and the CMA120 Swivel assembly secured to the animal using a plastic collar. Flow through the dialysis probe with aCSF was maintained at a rate of 1 μl/min during the whole experimentation. The first four fractions (corresponding to 2 hours) were discarded to avoid the effects of parenchymal disturbance and to ensure that an approximate steady-state level was reached. Fractions were then collected over a period of 8.5 h during which time the animals remained quiet. The dialysates were automatically collected with an autosampler (microfraction collector CMA 140, Carnegie Medicin) and stored at −80° C. until analysis. […] Perfusion was then maintained for 7 hours with aCSF. The dialysates (30 μl) were collected into 300 μl vials, transferred into dry ice and then kept frozen (−80° C.) until analysis. Frozen samples were shipped to a partner for analysis. At the end of the microdialysis study, a PBS with colored ink was perfused through the probe in order to visualize the dialyzed area.\nCatecholamine assay: Concentrations of dopamine, DOPAC, HVA, 5-HIAA, 5-HT, and norepinephrin were determined for each sample by HPLC coupled with electrochemical detection.", "note": "Several values for one entry are separate records, joined by “and”; a condition that tells them apart may be missing. Equal values may be shown once. Where a name gives a salt, the structure may show the parent alone."}
{"smiles": "Cc1nnc(-c2cc3c(OC[C@@H](O)CN4CCC(c5ccc(Cl)c(Cl)c5)CC4)cccc3o2)o1", "note": "[SON-117, (S)-1-(4-(3,4-dichlorophenyl)piperidino)-3-(2-(5-methyl-1,3,4-oxadiazol-2-yl)benzo(b)furan-4-yloxy)-2-propanol hydrochloride]", "values": [{"measurement": "DOPAMINE (% of respective basal), individual animal", "setting": "T30-T1 h", "result": "78.42 % of respective basal and 144.00 % of respective basal and 128.77 % of respective basal and 71.43 % of respective basal and 151.01 % of respective basal and 47.86 % of respective basal and 101.52 % of respective basal"}, {"measurement": "DOPAMINE (% of respective basal), individual animal", "setting": "T1 h 30-T2 h", "result": "36.00 % of respective basal and 142.72 % of respective basal and 334.21 % of respective basal and 140.61 % of respective basal and 189.68 % of respective basal and 109.22 % of respective basal and 110.24 % of respective basal"}, {"measurement": "DOPAMINE (% of respective basal), individual animal", "setting": "T1 h-T1 h 30", "result": "48.68 % of respective basal and 33.57 % of respective basal and 218.55 % of respective basal and 176.05 % of respective basal and 99.52 % of respective basal and 198.57 % of respective basal and 106.01 % of respective basal and 103.54 % of respective basal"}, {"measurement": "DOPAMINE (% of respective basal), individual animal", "setting": "T2 h 30-T3 h", "result": "23.71 % of respective basal and 100.08 % of respective basal and 315.3 % of respective basal and 95.2 % of respective basal and 171.39 % of respective basal and 293.73 % of respective basal and 72.19 % of respective basal and 35.99 % of respective basal"}, {"measurement": "DOPAMINE (% of respective basal), individual animal", "setting": "T2 h-T2 h 30", "result": "84.44 % of respective basal and 172.82 % of respective basal and 179.35 % of respective basal and 87.73 % of respective basal and 1288.95 % of respective basal and 305.56 % of respective basal and 131.13 % of respective basal and 45.72 % of respective basal"}, {"measurement": "DOPAMINE (% of respective basal), individual animal", "setting": "T3 h 30-T4 h", "result": "23.36 % of respective basal and 145.75 % of respective basal and 464.25 % of respective basal and 43.13 % of respective basal and 194.11 % of respective basal and 295.73 % of respective basal and 45.38 % of respective basal and 34.94 % of respective basal"}, {"measurement": "DOPAMINE (% of respective basal), individual animal", "setting": "T3 h-T3 h 30", "result": "40.16 % of respective basal and 117.963 % of respective basal and 93.88 % of respective basal and 47.74 % of respective basal and 225.34 % of respective basal and 586.07 % of respective basal and 48.38 % of respective basal and 40.61 % of respective basal"}, {"measurement": "DOPAMINE (% of respective basal), individual animal", "setting": "T4 h 30-T5 h", "result": "196.31 % of respective basal and 152.43 % of respective basal and 409.91 % of respective basal and 45.90 % of respective basal and 293.48 % of respective basal and 662.65 % of respective basal and 73.568 % of respective basal and 92.51 % of respective basal"}, {"measurement": "DOPAMINE (% of respective basal), individual animal", "setting": "T4 h-T4 h 30", "result": "91.54 % of respective basal and 75.24 % of respective basal and 423.55 % of respective basal and 28.53 % of respective basal and 308.40 % of respective basal and 676.86 % of respective basal and 63.428 % of respective basal and 58.94 % of respective basal"}, {"measurement": "DOPAMINE (% of respective basal), individual animal", "setting": "T5 h 30-T6 h", "result": "107.62 % of respective basal and 109.11 % of respective basal and 218.37 % of respective basal and 42.54 % of respective basal and 135.41 % of respective basal and 709.30 % of respective basal and 42.94 % of respective basal and 140.37 % of respective basal"}, {"measurement": "DOPAMINE (% of respective basal), individual animal", "setting": "T5 h-T5 h 30", "result": "110.75 % of respective basal and 148.81 % of respective basal and 228.76 % of respective basal and 47.98 % of respective basal and 200.12 % of respective basal and 601.17 % of respective basal and 21.81 % of respective basal and 112.11 % of respective basal"}, {"measurement": "DOPAMINE (% of respective basal), individual animal", "setting": "T6 h 30-T7 h", "result": "78.29 % of respective basal and 188.44 % of respective basal and 933.712 % of respective basal and 63.21 % of respective basal and 1205.29 % of respective basal and 126.67 % of respective basal"}, {"measurement": "DOPAMINE (% of respective basal), individual animal", "setting": "T6 h-T6 h 30", "result": "130.81 % of respective basal and 238.5 % of respective basal and 88.84 % of respective basal and 62.29 % of respective basal and 146.28 % of respective basal and 882.60 % of respective basal and 95.56 % of respective basal and 166.52 % of respective basal"}, {"measurement": "Dopamine release, MEAN", "setting": "T0-T30 min", "result": "128.24 % of respective basal"}, {"measurement": "Dopamine release, MEAN", "setting": "T30-T1 h", "result": "131.35 % of respective basal"}, {"measurement": "Dopamine release, individual animals", "setting": "T30-T1 h", "result": "103.18 % of respective basal and 54.05 % of respective basal and 146.65 % of respective basal and 93.66 % of respective basal and 168.96 % of respective basal and 281.64 % of respective basal and 59.20 % of respective basal and 143.48 % of respective basal"}, {"measurement": "Dopamine release, MEAN", "setting": "T1 h 30-T2 h", "result": "90.06 % of respective basal"}, {"measurement": "Dopamine release, individual animals", "setting": "T1 h 30-T2 h", "result": "91.90 % of respective basal and 29.89 % of respective basal and 33.64 % of respective basal and 64.84 % of respective basal and 106.30 % of respective basal and 119.82 % of respective basal and 81.21 % of respective basal and 192.86 % of respective basal"}, {"measurement": "Dopamine release, MEAN", "setting": "T1 h-T1 h 30", "result": "94.40 % of respective basal"}, {"measurement": "Dopamine release, individual animals", "setting": "T1 h-T1 h 30", "result": "50.19 % of respective basal and 44.28 % of respective basal and 51.46 % of respective basal and 70.10 % of respective basal and 123.34 % of respective basal and 256.96 % of respective basal and 56.09 % of respective basal and 102.79 % of respective basal"}, {"measurement": "Dopamine release, MEAN", "setting": "T2 h 30-T3 h", "result": "95.29 % of respective basal"}, {"measurement": "Dopamine release, individual animals", "setting": "T2 h 30-T3 h", "result": "53.62 % of respective basal and 111.85 % of respective basal and 131.64 % of respective basal and 82.81 % of respective basal and 130.53 % of respective basal and 91.04 % of respective basal and 42.56 % of respective basal and 118.24 % of respective basal"}, {"measurement": "Dopamine release, MEAN", "setting": "T2 h-T2 h 30", "result": "112.22 % of respective basal"}, {"measurement": "Dopamine release, individual animals", "setting": "T2 h-T2 h 30", "result": "78.18 % of respective basal and 201.28 % of respective basal and 102.58 % of respective basal and 57.76 % of respective basal and 140.27 % of respective basal and 171.47 % of respective basal and 131.71 % of respective basal and 14.48 % of respective basal"}, {"measurement": "Dopamine release, MEAN", "setting": "T3 h 30-T4 h", "result": "131.87 % of respective basal"}, {"measurement": "Dopamine release, individual animals", "setting": "T3 h 30-T4 h", "result": "348.64 % of respective basal and 164.63 % of respective basal and 39.78 % of respective basal and 87.76 % of respective basal and 122.97 % of respective basal and 30.76 % of respective basal and 128.55 % of respective basal"}, {"measurement": "Dopamine release, MEAN", "setting": "T3 h-T3 h 30", "result": "133.65 % of respective basal"}, {"measurement": "Dopamine release, individual animals", "setting": "T3 h-T3 h 30", "result": "263.92 % of respective basal and 284.14 % of respective basal and 32.71 % of respective basal and 88.53 % of respective basal and 186.05 % of respective basal and 14.29 % of respective basal and 65.93 % of respective basal"}, {"measurement": "Dopamine release, MEAN", "setting": "T4 h 30-T5 h", "result": "99.61 % of respective basal"}, {"measurement": "Dopamine release, individual animals", "setting": "T4 h 30-T5 h", "result": "204.04 % of respective basal and 138.52 % of respective basal and 77.42 % of respective basal and 28.77 % of respective basal and 97.45 % of respective basal and 26.06 % of respective basal and 62.98 % of respective basal and 161.60 % of respective basal"}, {"measurement": "Dopamine release, MEAN", "setting": "T4 h-T4 h 30", "result": "126.41 % of respective basal"}, {"measurement": "Dopamine release, individual animals", "setting": "T4 h-T4 h 30", "result": "99.34 % of respective basal and 210.06 % of respective basal and 195.26 % of respective basal and 40.10 % of respective basal and 119.18 % of respective basal and 52.10 % of respective basal and 159.91 % of respective basal and 135.30 % of respective basal"}, {"measurement": "Dopamine release, MEAN", "setting": "T5 h 30-T6 h", "result": "263.98 % of respective basal"}]}
